We go through 82 compounds from PubChem BioAssay AID720512 (Broad Institute, 2013).

Activity calls are given as the source filed them. How the calls were made is not given here. Some results are limits rather than exact numbers.

The first experiment addresses Toxin B (TcdB) glycohydrolase, Clostridioides difficile 630. Kind of experiment: TcdB glycohydrolase inhibitors, dose response, biochemical, cherry-pick, plate reader (AID 720512). The following applies: recombinant TcdB glycohydrolase activity.
Take `COc1cc(/C=N/n2c(-c3ccccc3)n[nH]c2=S)ccc1O`: the AC50 is > 39 µM (inactive). For the compound `COc1ccc(/C=C(/C#N)C(=O)Nc2ccc(O)cc2)cc1C(=O)O`, the AC50 was > 39 µM (inactive). Consider `C[N+]1(CCCCSc2ccc(O)cc2)CCCCC1`, for which the AC50 is > 39 µM (inactive). Regarding `Oc1ccc(-c2cn3ccccc3n2)cc1`, the AC50 is 12.1 µM. With `O=C(Nc1ccc(N2CCOCC2)c(Cl)c1)c1ccc(Cl)cc1`, the AC50 was > 39 µM (inactive).

Regarding `N=C(N)c1ccc(N=Nc2c(O)ccc3c2[nH]c2ccccc23)cc1`, the AC50 was > 39 µM (inactive).

Still in this experiment, the particulars now being: recombinant TcdB glycohydrolase activity, at 19.5 µM (top of the series).
For `Cc1cc(C(=O)CSc2nc(N)cc(=O)[nH]2)c(C)n1CC1CCCO1` (configuration not stated), the “activity change, negative = inhibition” value was “inactive”. For the compound `CCOC(=O)c1ccc[n+](CC(=O)c2ccc(NC(=O)c3ccccc3)cc2)c1`, the “activity change, negative = inhibition” value is “inactive”. Consider `Cc1ccc(C(=O)NC(=O)OCCn2c(C)cnc2[N+](=O)[O-])cc1`, for which the “activity change, negative = inhibition” value is “inactive”. Regarding `COc1ccc(NS(=O)CCCc2ccccc2)cc1` (configuration not stated), the “activity change, negative = inhibition” value was “inactive”. For `CC(=O)c1cccc(-c2ccnc3c2CC(C(=O)NCc2ccccc2)O3)c1` (configuration not stated), the “activity change, negative = inhibition” value is “inactive”. Take `S=C(NCCc1ccccc1)Nc1ncccn1`: the “activity change, negative = inhibition” value is “inactive”.

As for `Cc1cc(O)ccc1N=Cc1c(C(F)(F)F)[nH][nH]c1=O`, the “activity change, negative = inhibition” value is “inactive”.

Take `CC(C)(Oc1ccc(Cl)cc1)C(=O)NC1CC1`: the “activity change, negative = inhibition” value was “inactive”. In the case of `CN(CCN1CCOCC1)C(=O)CC1C(=O)NCCN1Cc1ccccc1C(F)(F)F` (configuration not stated), the “activity change, negative = inhibition” value is “inactive”. In the case of `CN(c1ccccc1)S(=O)(=O)c1cccc(C(=O)NCCc2ccc(O)c(O)c2)c1`, the “activity change, negative = inhibition” value was “inactive”. Still for that read-out and setting: next, `Cc1ccc(S(=O)(=O)N2CCCC2C(=O)Nc2ccc(O)cc2)cc1` (configuration not stated): “inactive”; `CCOc1ccccc1/C=C/c1onc(C)c1S(=O)(=O)N1CCC(C(=O)NC(C)(C)C)CC1`: “inactive”. Same read-out and setting: next, `O=C(COc1ccccc1)Nc1ccc(S(=O)(=O)Nc2ncccn2)cc1`: “inactive”; `O=[N+]([O-])c1ccc(S(=O)(=O)Nc2nc(-c3ccccc3)cs2)cc1`: “inactive”. Take `Cc1c(CCCC(=O)O)sc(N)c1C(=O)c1cccc(C(F)(F)F)c1`: the “activity change, negative = inhibition” value is “inactive”.

As for `Oc1ccc(/C=N/Nc2nc(N3CCCC3)nc(N3CCCC3)n2)cc1O`, the “activity change, negative = inhibition” value was “inactive”. As to `CC1=C(C(=O)OCC2CCCO2)C(c2coc3ccccc3c2=O)C2=C(CCCC2=O)N1` (configuration not stated), the “activity change, negative = inhibition” value is “inactive”. Take `CC1CN=C(Nc2cccc(S(=O)(=O)N(C)C)c2)S1` (configuration not stated): the “activity change, negative = inhibition” value is “inactive”.

In the case of `COc1ccc(C(=O)Nc2cc(Cl)ccc2C(=O)O)cc1`, the “activity change, negative = inhibition” value is “inactive”. On to `Cc1ccc(S(=O)(=O)N2CCOCC2)cc1C(=O)NCCCN1CCCC1=O`, for which the “activity change, negative = inhibition” value is “inactive”.

As for `Cc1cc(C)nc(SCC(=O)c2ccc(O)c(O)c2)n1`, the “activity change, negative = inhibition” value was “inactive”. For the compound `O=c1[nH]c(CN2CCOCC2)nc2cc(Cl)ccc12`, the “activity change, negative = inhibition” value is “inactive”. Consider `Cc1cc(C)c(C)c(S(=O)(=O)N2CCCCC2C(=O)O)c1C` (configuration not stated), for which the “activity change, negative = inhibition” value is “inactive”. In the case of `COc1ccccc1C(=O)Nc1cccc(Oc2c(F)c(F)c(F)c(F)c2F)c1`, the “activity change, negative = inhibition” value is “inactive”.

Take `Cc1ccnc(N2C(=O)c3ccccc3C2=O)c1`: the “activity change, negative = inhibition” value is “inactive”. With `O=c1[nH]nc(-c2ccc(F)cc2)cc1Cc1ccccc1`, the “activity change, negative = inhibition” value was “inactive”. On to `Cc1ccc2ccc[n+](Cc3ccccc3)c2c1`, for which the “activity change, negative = inhibition” value is “inactive”. Same read-out and setting: as for `CN(C)CCCNC(=O)C[C@H]1CC[C@@H]2[C@@H](COc3ccc(NC(=O)c4ccc5c(c4)OCO5)cc3C(=O)N2C)O1`, the entry is “inactive”; as for `COc1ccc(N2CCN(CCNC(=O)Nc3cc(Cl)ccc3OC)CC2)cc1`, “inactive”; as for `Cc1ccc(/C=N/NC(=O)c2cccc(S(=O)(=O)Nc3ccccc3Cl)c2)o1`, “inactive”. Take `CCCC(=O)Nc1ccc2c(c1)OC[C@H](C)N(CC1CCCC1)C[C@H](C)[C@@H](OC)CN(C)C2=O`: the “activity change, negative = inhibition” value is “inactive”.

On to `CCc1[nH]c(=O)c(C#N)c2c1CCCC2`, for which the “activity change, negative = inhibition” value was “inactive”. Take `O=C(C[C@@H]1C[C@H]2c3cc(NC(=O)c4ccc5c(c4)OCO5)ccc3O[C@H]2[C@H](CO)O1)NCc1cccc(F)c1`: the “activity change, negative = inhibition” value is “inactive”. Same read-out and setting: next, `CCCc1[nH]c(=O)c(C#N)c2c1CCCC2`: “inactive”.

In the case of `Cc1ccc(S(=O)(=O)Oc2ccccc2/C=C2/SC(=O)NC2=O)cc1`, the “activity change, negative = inhibition” value was “inactive”. As to `CCc1ccc(NC(=O)C2=CC(c3ccc(OC)cc3)=NS(=O)(=O)N2C)cc1`, the “activity change, negative = inhibition” value was “inactive”. As for `O=C(CSc1nc2cc(Cl)ccc2s1)c1ccco1`, the “activity change, negative = inhibition” value was “inactive”. Still for that read-out and setting: as for `CCN(CC)S(=O)(=O)c1cc(C(=O)Nc2cccnc2Cl)ccc1Cl`, the entry is “inactive”; as for `c1ccc(-c2nnc(OCC3CCCO3)c3ccccc23)cc1` (configuration not stated), “inactive”; as for `Oc1ccccc1-c1cnc2cccnn12`, “inactive”. Consider `O=C(C[C@@H]1CC[C@H]2[C@@H](COC[C@@H](O)CN2Cc2ccc(Oc3ccccc3)cc2)O1)Nc1nccs1`, for which the “activity change, negative = inhibition” value was “inactive”. `S=C(c1cn(Cc2ccccc2)c2ccccc12)N1CCOCC1`: the “activity change, negative = inhibition” value is “inactive”. For the compound `Nc1ncnc2[nH]c(=S)[nH]c12`, the “activity change, negative = inhibition” value was “inactive”. `CCOC(=O)c1ccc(-n2c(CCC(=O)O)ccc2-c2ccc(F)cc2)cc1`: the “activity change, negative = inhibition” value was “inactive”. For the compound `O=C(C[C@@H]1CC[C@H]2[C@@H](COC[C@H](O)CN2C(=O)c2ccccn2)O1)NC1CCC1`, the “activity change, negative = inhibition” value is “inactive”. Regarding `O=c1c2oc3nc4c(cc3c2ncn1CCCc1ccccc1)CCCC4`, the “activity change, negative = inhibition” value was “inactive”. Take `O=C(NNc1nc2c(F)cc(F)cc2s1)C1COc2ccccc2O1` (configuration not stated): the “activity change, negative = inhibition” value was “inactive”. For `COc1ccc(S(=O)(=O)N2CCOCC2)cc1NC(=O)COC(=O)c1[nH]c(C)c(C(C)=O)c1C`, the “activity change, negative = inhibition” value is “inactive”. For `O=C(CN1C(=O)NC2(CCCc3ccccc32)C1=O)NCc1cccs1` (configuration not stated), the “activity change, negative = inhibition” value is “inactive”. Still for that read-out and setting: as for `O=CN(c1ccccc1)c1ccc2ccccc2c1`, the entry is “inactive”; as for `COc1ccc(NC(=O)c2cc(S(=O)(=O)N3CCc4ccccc43)cn2C)cc1OC`, “inactive”. For the compound `O=C(c1ccc2c(c1)N(Cc1ccccc1)C(=O)c1ccccc1S2)N1CCCC1`, the “activity change, negative = inhibition” value was “inactive”.

As for `CC(=O)c1cccc(OCC(=O)c2cc(C)n(-c3cc(C)on3)c2C)c1`, the “activity change, negative = inhibition” value was “inactive”. For the compound `COc1cc(/C=N/Nc2nc3ccccc3[nH]2)ccc1O`, the “activity change, negative = inhibition” value was “inactive”. As for `COc1cc(-c2n[nH]c(=S)n2/N=C/c2cccn2C)cc(OC)c1OC`, the “activity change, negative = inhibition” value is “inactive”.

Take `C[C@H](CO)N1C[C@H](C)[C@H](CN(C)Cc2ccc(Oc3ccccc3)cc2)Oc2cc(-c3ccncc3)ccc2S1(=O)=O`: the “activity change, negative = inhibition” value is “inactive”. For the compound `CNC(=O)C1CCN(S(=O)(=O)c2c(C)noc2/C=C/c2cccc(C)c2)CC1`, the “activity change, negative = inhibition” value is “inactive”.

Take `CN1C(=O)CSc2ccc(NC(=O)N3CCc4ccccc43)cc21`: the “activity change, negative = inhibition” value was “inactive”. As to `Cc1ccc(/C=C/c2onc(C)c2S(=O)(=O)N2CCC(C(=O)N3CCN(C)CC3)CC2)cc1`, the “activity change, negative = inhibition” value is “inactive”. The same measure, in the same setting: as for `CNC(=O)C[C@H]1CC[C@@H]2[C@@H](COc3ccc(NC(=O)c4ccc(OC)cc4)cc3C(=O)N2C)O1`, the entry is “inactive”; as for `O=C(C[C@@H]1CC[C@H]2[C@@H](COC[C@@H](O)CN2C(=O)c2ccccn2)O1)NC1CCC1`, “inactive”; as for `C[C@H](NC(=O)c1cc2c(cn1)[nH]c1ccccc12)C(=O)O`, “inactive”.

Turning to `Cc1ccc(C(=O)NCCn2cc(SCC(=O)Nc3cc(C)on3)c3ccccc32)cc1`, the “activity change, negative = inhibition” value is “inactive”. For `COc1cc(N=Nc2c(C)n(C)n(-c3ccccc3)c2=O)ccc1N`, the “activity change, negative = inhibition” value is “inactive”. On to `CC(Sc1nccn1C)C(=O)c1c(N)n(C)c(=O)n(C)c1=O` (configuration not stated), for which the “activity change, negative = inhibition” value is “inactive”. For the compound `Cn1c(=O)c2c([nH]c(=S)n2Cc2ccc(Cl)cc2)n(C)c1=O`, the “activity change, negative = inhibition” value is “inactive”.

As for `COC(=O)Cc1ccc(NC(=S)NCc2ccco2)cc1`, the “activity change, negative = inhibition” value is “inactive”. Still for that read-out and setting: next, `O=C(c1ccc([N+](=O)[O-])cc1)N1CCN(c2cccc3[nH]ccc23)CC1`: “inactive”; `Cc1cccn2c(=S)[nH]nc12`: “inactive”; `Cc1ccc2c(C)c3ccc4ccccc4c3c[n+]2c1`: “inactive”. For `O=C(NN=Cc1cc(Br)c(O)c(Br)c1)c1ccccc1NS(=O)(=O)c1cccs1`, the “activity change, negative = inhibition” value is “inactive”. For `O=C(O)c1ccc(/C=N/NC(=S)NCCN2CCOCC2)cc1`, the “activity change, negative = inhibition” value was “inactive”.

Take `O=C(OCC(=O)N1CCCc2ccccc21)c1ccc(C(F)(F)F)cc1`: the “activity change, negative = inhibition” value is “inactive”. Still for that read-out and setting: next, `CCn1c(SCC(=O)OC)nnc1-c1ccccc1`: “inactive”. As for `CCOC(=O)c1ccc(N=c2sc(C(=O)OC)cc(=O)n2CCCN2CCOCC2)cc1`, the “activity change, negative = inhibition” value is “inactive”. As for `Cc1cnc([N+](=O)[O-])n1CCOC(=O)NC(=O)c1ccc(F)cc1`, the “activity change, negative = inhibition” value is “inactive”.
